Measurements reported in the NIST ThermoML archive (doi:10.1016/j.tca.2013.02.010).
Numbers after ± are expanded uncertainties.

Columns and labels:
[1] = 101.33 kPa, Liquid, Pycnometric method
[2] = refractive index (Na D-line) (dimensionless); settings: 298.15 K; 101.33 kPa; Liquid; Standard Abbe refractometry
[3] = excess molar enthalpy (molar enthalpy of mixing); xn = mol fraction of the nth substance listed; settings: 101 kPa, Liquid, Flow calorimetry
[4] = xn = mol fraction of the nth substance listed; settings: 308.15 K, 101 kPa, Liquid, Direct dilatometry

NC=O [formamide]
[1]
Settings | mass density [kg/m3]
298.15 K | 1129.04 ± 1.3
308.15 K | 1120.45 ± 1.3

Settings | refractive index
[2] | 1.4461 ± 0.0008

NC=O [formamide] + CC(C)O
[3]
Settings | excess molar enthalpy [kcal/mol]
298.15 K, x1 = 0.056 | 0.0588 ± 0.0012
298.15 K, x1 = 0.073 | 0.0736 ± 0.0012
298.15 K, x1 = 0.099 | 0.0963 ± 0.0012
298.15 K, x1 = 0.125 | 0.111 ± 0.00143
298.15 K, x1 = 0.162 | 0.134 ± 0.00143
298.15 K, x1 = 0.2 | 0.149 ± 0.00167
298.15 K, x1 = 0.253 | 0.167 ± 0.00167
298.15 K, x1 = 0.291 | 0.1747 ± 0.00167
298.15 K, x1 = 0.329 | 0.1809 ± 0.00167
298.15 K, x1 = 0.4 | 0.1855 ± 0.00167
298.15 K, x1 = 0.468 | 0.1845 ± 0.00167
298.15 K, x1 = 0.537 | 0.179 ± 0.00167
298.15 K, x1 = 0.597 | 0.1699 ± 0.00167
298.15 K, x1 = 0.662 | 0.157 ± 0.00167
298.15 K, x1 = 0.702 | 0.1477 ± 0.00143
298.15 K, x1 = 0.728 | 0.139 ± 0.00143
298.15 K, x1 = 0.766 | 0.126 ± 0.00143
298.15 K, x1 = 0.812 | 0.108 ± 0.00143
298.15 K, x1 = 0.849 | 0.0913 ± 0.0012
298.15 K, x1 = 0.878 | 0.077 ± 0.0012
298.15 K, x1 = 0.901 | 0.0636 ± 0.0012
298.15 K, x1 = 0.941 | 0.0406 ± 0.000956
308.15 K, x1 = 0.0666 | 0.0798 ± 0.0012
308.15 K, x1 = 0.0916 | 0.103 ± 0.00143
308.15 K, x1 = 0.1166 | 0.124 ± 0.00143
308.15 K, x1 = 0.1501 | 0.1475 ± 0.00143
308.15 K, x1 = 0.1812 | 0.165 ± 0.00167
308.15 K, x1 = 0.229 | 0.1886 ± 0.00167
308.15 K, x1 = 0.2702 | 0.2022 ± 0.00191
308.15 K, x1 = 0.3082 | 0.2141 ± 0.00191
308.15 K, x1 = 0.3666 | 0.2239 ± 0.00191
308.15 K, x1 = 0.425 | 0.2297 ± 0.00215
308.15 K, x1 = 0.4958 | 0.2297 ± 0.00215
308.15 K, x1 = 0.5624 | 0.2239 ± 0.00191
308.15 K, x1 = 0.629 | 0.2094 ± 0.00191
308.15 K, x1 = 0.6832 | 0.1919 ± 0.00191
308.15 K, x1 = 0.7124 | 0.1809 ± 0.00167
308.15 K, x1 = 0.7503 | 0.164 ± 0.00167
308.15 K, x1 = 0.7958 | 0.14 ± 0.00143
308.15 K, x1 = 0.8374 | 0.115 ± 0.00143
308.15 K, x1 = 0.8708 | 0.0932 ± 0.0012
308.15 K, x1 = 0.8874 | 0.0805 ± 0.0012
308.15 K, x1 = 0.9082 | 0.0674 ± 0.0012
308.15 K, x1 = 0.954 | 0.0337 ± 0.000956

[4]
Settings | excess molar volume [m3/mol]
x1 = 0.0455 | -3.2e-08 ± 2e-09
x1 = 0.1021 | -6.4e-08 ± 3e-09
x1 = 0.1327 | -7.9e-08 ± 3e-09
x1 = 0.1725 | -1.05e-07 ± 3e-09
x1 = 0.2155 | -1.34e-07 ± 4e-09
x1 = 0.2692 | -1.69e-07 ± 4e-09
x1 = 0.3269 | -2.06e-07 ± 5e-09
x1 = 0.3535 | -2.27e-07 ± 5e-09
x1 = 0.3867 | -2.48e-07 ± 5e-09
x1 = 0.4245 | -2.71e-07 ± 6e-09
x1 = 0.485 | -3e-07 ± 6e-09
x1 = 0.5191 | -3.13e-07 ± 7e-09
x1 = 0.5729 | -3.28e-07 ± 7e-09
x1 = 0.6237 | -3.32e-07 ± 7e-09
x1 = 0.6951 | -3.31e-07 ± 7e-09
x1 = 0.7543 | -3.11e-07 ± 7e-09
x1 = 0.7907 | -2.9e-07 ± 6e-09
x1 = 0.825 | -2.61e-07 ± 6e-09
x1 = 0.8735 | -2e-07 ± 5e-09
x1 = 0.8999 | -1.71e-07 ± 4e-09
x1 = 0.9331 | -1.18e-07 ± 3e-09
x1 = 0.9745 | -5.1e-08 ± 2e-09

NC=O [formamide] + CCCO
[3]
Settings | excess molar enthalpy [kcal/mol]
298.15 K, x1 = 0.0624 | 0.0614 ± 0.0012
298.15 K, x1 = 0.0881 | 0.082 ± 0.0012
298.15 K, x1 = 0.1208 | 0.105 ± 0.00143
298.15 K, x1 = 0.1479 | 0.123 ± 0.00143
298.15 K, x1 = 0.1832 | 0.141 ± 0.00143
298.15 K, x1 = 0.2231 | 0.156 ± 0.00167
298.15 K, x1 = 0.254 | 0.166 ± 0.00167
298.15 K, x1 = 0.3018 | 0.1757 ± 0.00167
298.15 K, x1 = 0.3775 | 0.1809 ± 0.00167
298.15 K, x1 = 0.452 | 0.1788 ± 0.00167
298.15 K, x1 = 0.4832 | 0.1771 ± 0.00167
298.15 K, x1 = 0.5364 | 0.1678 ± 0.00167
298.15 K, x1 = 0.5953 | 0.158 ± 0.00167
298.15 K, x1 = 0.6672 | 0.1441 ± 0.00143
298.15 K, x1 = 0.6958 | 0.137 ± 0.00143
298.15 K, x1 = 0.7521 | 0.122 ± 0.00143
298.15 K, x1 = 0.7958 | 0.109 ± 0.00143
298.15 K, x1 = 0.8443 | 0.0913 ± 0.0012
298.15 K, x1 = 0.8956 | 0.0686 ± 0.0012
298.15 K, x1 = 0.9208 | 0.0559 ± 0.0012
298.15 K, x1 = 0.9526 | 0.0361 ± 0.000956
298.15 K, x1 = 0.9666 | 0.028 ± 0.000956
308.15 K, x1 = 0.0582 | 0.0631 ± 0.0012
308.15 K, x1 = 0.079 | 0.0825 ± 0.0012
308.15 K, x1 = 0.104 | 0.103 ± 0.00143
308.15 K, x1 = 0.1374 | 0.125 ± 0.00143
308.15 K, x1 = 0.1624 | 0.141 ± 0.00143
308.15 K, x1 = 0.2082 | 0.164 ± 0.00167
308.15 K, x1 = 0.2416 | 0.1769 ± 0.00167
308.15 K, x1 = 0.275 | 0.1869 ± 0.00167
308.15 K, x1 = 0.3332 | 0.1979 ± 0.00191
308.15 K, x1 = 0.4124 | 0.202 ± 0.00191
308.15 K, x1 = 0.4666 | 0.2036 ± 0.00191
308.15 K, x1 = 0.5082 | 0.1986 ± 0.00191
308.15 K, x1 = 0.5666 | 0.1919 ± 0.00191
308.15 K, x1 = 0.625 | 0.1769 ± 0.00167
308.15 K, x1 = 0.679 | 0.164 ± 0.00167
308.15 K, x1 = 0.725 | 0.15 ± 0.00167
308.15 K, x1 = 0.775 | 0.131 ± 0.00143
308.15 K, x1 = 0.8166 | 0.113 ± 0.00143
308.15 K, x1 = 0.8666 | 0.0877 ± 0.0012
308.15 K, x1 = 0.9124 | 0.0621 ± 0.0012
308.15 K, x1 = 0.9416 | 0.0425 ± 0.000956
308.15 K, x1 = 0.9582 | 0.0306 ± 0.000956

[4]
Settings | excess molar volume [m3/mol]
x1 = 0.0615 | -3e-08 ± 2e-09
x1 = 0.1052 | -4.3e-08 ± 2e-09
x1 = 0.165 | -6e-08 ± 3e-09
x1 = 0.1937 | -6.9e-08 ± 3e-09
x1 = 0.2453 | -7.8e-08 ± 3e-09
x1 = 0.2856 | -9.1e-08 ± 3e-09
x1 = 0.3317 | -1.05e-07 ± 3e-09
x1 = 0.372 | -1.12e-07 ± 3e-09
x1 = 0.3949 | -1.25e-07 ± 3e-09
x1 = 0.4236 | -1.35e-07 ± 4e-09
x1 = 0.4639 | -1.48e-07 ± 4e-09
x1 = 0.5213 | -1.61e-07 ± 4e-09
x1 = 0.5903 | -1.71e-07 ± 4e-09
x1 = 0.6394 | -1.71e-07 ± 4e-09
x1 = 0.6765 | -1.68e-07 ± 4e-09
x1 = 0.7225 | -1.59e-07 ± 4e-09
x1 = 0.7686 | -1.42e-07 ± 4e-09
x1 = 0.8031 | -1.23e-07 ± 3e-09
x1 = 0.8492 | -1e-07 ± 3e-09
x1 = 0.8837 | -7.8e-08 ± 3e-09
x1 = 0.9124 | -5.5e-08 ± 2e-09
x1 = 0.9411 | -3.3e-08 ± 2e-09

CCCO [propan-1-ol]
[1]
Settings | mass density [kg/m3]
298.15 K | 799.76 ± 0.7
308.15 K | 791.48 ± 0.71

Settings | refractive index
[2] | 1.3835 ± 0.0008

CC(C)O [propan-2-ol]
[1]
Settings | mass density [kg/m3]
298.15 K | 781.25 ± 0.67
308.15 K | 772.3 ± 0.68

Settings | refractive index
[2] | 1.3753 ± 0.0008
